Laboratory results taken from ChEMBL document CHEMBL1201862, “PubChem BioAssay data set” (2004).
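Briefly, cells in 96-well plates were exposed to five compound concentrations for 48 h, and endpoints were estimated by linear interpolation. At the GI50, growth is halved.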 Active and inactive are the calls of the source. Rule as the data show it: active = GI50 up to about 1.1 µM and inactive = higher.

Legend:
Assay in all cases: NCI-60 cell line screen, 48 h
RXF 393 = tested on: RXF 393
Malme-3M = tested on: Malme-3M
NCI-H23 = tested on: NCI-H23
SK-MEL-5 = tested on: SK-MEL-5
NCI-H226 = tested on: NCI-H226
786-0 = tested on: 786-0
SNB-75 = tested on: SNB-75
HOP-62 = tested on: HOP-62
RPMI-8226 = tested on: RPMI-8226
A498 = tested on: A498
SF-295 = tested on: SF-295
DLD-1 = tested on: DLD-1
SN12C = tested on: SN12C
SF-539 = tested on: SF-539
SR = tested on: SR
OVCAR-4 = tested on: OVCAR-4
DU-145 = tested on: DU-145
OVCAR-3 = tested on: OVCAR-3
IGROV-1 = tested on: IGROV-1
COLO 205 = tested on: COLO 205

Row | SMILES | GI50 (RXF 393) | GI50 (Malme-3M) | GI50 (NCI-H23) | GI50 (SK-MEL-5) | GI50 (NCI-H226) | GI50 (786-0) | GI50 (SNB-75) | GI50 (HOP-62) | GI50 (RPMI-8226) | GI50 (A498) | GI50 (SF-295) | GI50 (DLD-1) | GI50 (SN12C) | GI50 (SF-539) | GI50 (SR) | GI50 (OVCAR-4) | GI50 (DU-145) | GI50 (OVCAR-3) | GI50 (IGROV-1) | GI50 (COLO 205)
1 | C(=N/NC1=NCCN1)/c1c2ccccc2c(/C=N\NC2=NCCN2)c2ccccc12 | 155 nM (active) | 160 nM (active) | 129 nM (active) | 260 nM (active) | 96.6 nM (active) | 99.1 nM (active) | 73.5 nM (active) | 96.6 nM (active) | 82.6 nM (active) | 324 nM (active) | 383 nM (active) | 2830 nM (inactive) | 111 nM (active) | 100 nM (active) | 8.79 nM (active) | 302 nM (active) | 61.9 nM (active) | 184 nM (active) | 211 nM (active) | 54 nM (active)
2 | COc1ccc2[nH]c3c(C)c4c(c(C)c3c2c1)CN(C)C=C4 | 7210 nM (inactive) | 1210 nM (inactive) | 424 nM (active) | 1980 nM (inactive) | 267 nM (active) | 191 nM (active) | 226 nM (active) | 679 nM (active) | 7240 nM (inactive) | 1360 nM (inactive) | 293 nM (active) | 1920 nM (inactive) | 164 nM (active) | 366 nM (active) | 526 nM (active) | 3950 nM (inactive) | 5370 nM (inactive) | 4530 nM (inactive) | 1820 nM (inactive) | 1290 nM (inactive)
